Reference: patent US11491168B2, “Combination of Bcl-2/Bcl-xL inhibitors and chemotherapeutic agent and use thereof” (ASCENTAGE PHARMA (SUZHOU) CO., LTD., priority 2019, dated 2022)

How the values were obtained:
NCI-N87 cells [1] = assay: AnnexinV/PI staining apoptosis, NCI-N87; type: cell-based; conditions: NCI-N87, 48 hours; Compound 31 0.3 μM, 5-FU 3 μM
Description: (§1) The inventors chose to combine Compound 31 with one of the most common chemotherapeutic drugs in clinic, 5-fluorouracil (5-FU). In order to investigate the effect and the potential mechanisms of Compound 31 and 5-FU on the growth of gastric cancer cells, the inventors used the AnnexinV/PI staining to detect the apoptosis of two gastric cancer cells, AGS and NCI-N87, 48 hours after the treatment with Compound 31 (0.3 μM), 5-FU (3 μM), and the combination at specified concentrations. […] In NCI-N87 cells, the combination group also achieved a higher apoptosis rate than the mono therapy groups, Compound 31 or 5-FU as a single agent leading to apoptosis rates of 24% or 18% while the combination group reaching an apoptosis rate of 46% (FIG. 29(a)).

NCI-N87 cells [2] = assay: CCK-8 anti-proliferation, NCI-N87, Compound 31 with docetaxel; type: cell-based; conditions: Homo sapiens; NCI-N87, 72 hours, Compound 31 alone
Description: Briefly, NCI-N87 cells were seeded in 96-well plates and treated with different Compound 31 at different concentrations for 72 hours. […] Each concentration was prepared in triplicates. At the end of treatment, CCK-8 agents (10 μL/well) were added to the 96-well plate, and incubated with the cells for 2 hours. The OD450 value was measured using a microplate reader.

[3] = system: AGS and NCI-N87 gastric cancer cell lines; assay: cell cycle assay; type: cell-based
[4] = system: NCI-N87 gastric cancer cell line; assay: CCK-8 cell viability, NCI-N87; type: cell-based; conditions: Homo sapiens; NCI-N87, within 72 hours
Description: (§2) Thus, the sensitivity of gastric cancer cells to Compound 31 is closely related to the expression of Bcl-2, Bcl-xL and Bax.

[5] = system: small cell lung cancer cell line NCI-H146, NCI-H69 and NCI-H446; assay: Cell Titer-Glo luminescent cell viability assay (CTG); type: cell-based, human; conditions: small cell lung cancer cells
Description: Cells in the logarithmic growth phase were collected for Cell Titer-Glo® (CTG) luminescence cell viability assay. 10 μL of the diluted drug solution was added into a 96-well plate while 10 μL of the medium was added into the 96-well control plate. For the study of the combination, 5 μL of the indicated test reagent was added to each well. At the end of the study, the 96-well plates were equilibrated to room temperature, and then 30 μL of CTG reagent (protected from light) was added to each well to induce cell lysis. The luminescent signal was then detected using a Biotek Synergy H1 plate reader. Percent cell viability (%) was calculated using the mean luminescence value (LN) of the replicate wells (blank) of the control group, according to the following formula: percent cell viability (%)=(fluorescence signal value of experimental cells−fluorescence signal value of negative control cell)/(fluorescence signal value of control cells−fluorescence signal value of negative control cells)×100%.
Cell viability curve was plotted using Graphpad Prism 6.0 software (Golden software, Golden, Colo., USA). For the study of the drug combination, the Combination Index (CI) was calculated using CalcuSyn software (BIOSOFT, UK) to further analyze the combined effects of the indicated drugs (Chou, Cancer Research 70, 440-446). […]

AGS cells = assay: AnnexinV/PI staining apoptosis, AGS; type: cell-based; conditions: 48 hours, Compound 31 0.3 μM, 5-FU 3 μM
Description: as §1

[6] = system: AGS gastric cancer cell line; assay: CCK-8 cell viability, AGS; type: cell-based; conditions: within 72 hours
Description: as §2

For Cc1c(S(C)(=O)=O)c(-c2cc(F)cc(N3CCN(c4ccc(NS(=O)(=O)c5ccc(N[C@H](CCN6CCC(C(=O)O)CC6)CSc6ccccc6)c(S(=O)(=O)C(F)(F)F)c5)cc4)CC3)c2)c(-c2ccc(Cl)cc2)n1C(C)C [Compound 31, (R)-1-(3-(4-(N-(4-(4-(3-(2-(4-chlorophenyl)-1-isopropyl-5-methyl-4-(methylsulfonyl)-1H-pyrrol-3-yl)-5-fluorophenyl)piperazin-1-yl)phenyl)sulfamoyl)-2-(trifluoromethylsulfonyl)phenylamino)-4-(phenylthio)butyl)piperidine-4-carboxylic acid], the apoptosis rate (NCI-N87 cells [1]) was 24%, the IC50 (NCI-N87 cells [2]) was 405 nM and the “effect on cell cycle” value [3] was “no significant effect on cell cycle”. The IC50 [4] was 901 ± 230 nM, the “inhibition of proliferation as a single agent” value [5] was “can inhibit proliferation of small cell lung cancer cells” and the apoptosis rate (AGS cells) was “approximately 22%”. It also gave an IC50 [6] of 1150 ± 560 nM.
